Laboratory results published in patent US20230339915A1 (Vertex Pharmaceuticals Incorporated, priority 2020, published 2023).

Tests used:
[1] = target: NL20 human bronchial epithelial cells expressing human Z-AAT (Homo sapiens (Human), UniProt P01009, E366K); experiment: AAT Function Assay (MSD Assay NL20-SI Cell Line); assay type: cell-based; settings: functionally active AAT (AAT-hNE complex, MSD) in supernatant of NL20 cells expressing human Z-AAT; read-out: NL20 Functional EC50
Summary of the method: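 Secreted active Z-AAT was measured by MSD electrochemiluminescence: supernatants (45-fold total dilution) were incubated with human neutrophil elastase to form AAT–elastase complexes, captured by goat anti-AAT and detected with labelled anti-elastase. Cells were doxycycline-induced (0.1 μM) NL20 bronchial cells treated with compound overnight; M-AAT standard curve.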

[2] = target: purified Z-AAT protein from human plasma (Homo sapiens (Human), UniProt P01009, E366K); experiment: Biochemical Assay (Z-AAT Elastase Activity Assay); settings: purified Z-AAT pre-incubated with compound 1 hour, then human neutrophil elastase and fluorescent substrate
Summary of the method: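 Purified plasma Z-AAT (20 nM) preincubated with compounds 1 h at room temperature, then 3 nM human neutrophil elastase added in PBS + 0.01% BRIJ35 for 30 min to form suicide complex. Residual elastase activity read immediately by fluorescence after adding 300 μM MeOSuc-AAPV-AMC substrate solution.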

Chain of NL20 human bronchial epithelial cells expressing human Z-AAT (P01009 25-418 E366K limits assumed): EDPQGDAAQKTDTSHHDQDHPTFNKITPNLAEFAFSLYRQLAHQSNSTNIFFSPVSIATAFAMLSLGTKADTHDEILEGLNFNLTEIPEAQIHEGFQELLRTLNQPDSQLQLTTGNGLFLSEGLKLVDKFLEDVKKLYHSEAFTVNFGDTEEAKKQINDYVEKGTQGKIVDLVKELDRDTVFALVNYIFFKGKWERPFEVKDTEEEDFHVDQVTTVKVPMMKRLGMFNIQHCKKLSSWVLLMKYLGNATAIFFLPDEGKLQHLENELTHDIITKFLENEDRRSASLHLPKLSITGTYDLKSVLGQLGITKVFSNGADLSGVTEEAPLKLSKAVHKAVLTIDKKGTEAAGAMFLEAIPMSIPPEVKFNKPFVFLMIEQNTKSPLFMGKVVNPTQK
Chain of purified Z-AAT protein from human plasma (P01009 25-418 E366K limits assumed): as above

EC50 [1] [nM] | IC50 [2] [nM] | Structure (SMILES)
> 2000 | > 30000 | Cc1cc(-n2c(C3CCOCC3)c(C[C@H]3C[C@H](C(=O)O)C3)c3cc(O)ccc32)ccc1F [Compound 7]
> 2000 | > 30000 | CC(C)c1c(-c2cccc(C(=O)O)c2)c2cc(O)ccc2n1C1CC(F)(F)C1 [Compound 180, 3-(1-(3,3-difluorocyclobutyl)-5-hydroxy-2-isopropyl-1H-indol-3-yl)benzoic acid]
> 2000 | > 30000 | C/C=C/c1c(C#N)c2cc(O)ccc2n1-c1ccc(F)cc1 [Compound 191, 1-(4-fluorophenyl)-5-hydroxy-2-[(E)-prop-1-enyl]indole-3-carbonitrile]
500 to 2000 | > 30000 | N#Cc1c(C2CCOCC2)n(-c2ccc(F)cc2)c2ccc(O)cc12 [Compound 194, 1-(4-fluorophenyl)-5-hydroxy-2-(tetrahydro-2H-pyran-4-yl)-1H-indole-3-carbonitrile]
500 to 2000 | 2000 to 5000 | Cc1cc(-n2c(C(C)C)c(C3CC4(C3)CC(F)(C(=O)O)C4)c3cc(O)ccc32)ccc1F (centres unmarked) [Compound 149, 2-fluoro-6-(1-(4-fluoro-3-methylphenyl)-5-hydroxy-2-isopropyl-1H-indol-3-yl)spiro[3.3]heptane-2-carboxylic acid]
> 2000 | > 30000 | O=C(O)[C@]1(CF)C[C@H](c2c(C3CCOCC3)n(-c3ccc(F)c(Cl)c3)c3ccc(O)cc32)C1 [Compound 111]
> 2000 | > 5000 | Cc1cc(-n2c(C(C)C)c([C@H]3C[C@H](C(=O)NS(C)(=O)=O)C3)c3cc(O)ccc32)ccc1F [Compound 220, trans-3-[1-(4-fluoro-3-methyl-phenyl)-5-hydroxy-2-isopropyl-indol-3-yl]-N-methylsulfonyl-cyclobutanecarboxamide]
> 2000 | > 30000 | COCC(C)(C)c1c([C@H]2C[C@H](C(=O)O)C2)c2cc(O)ccc2n1-c1ccc(F)c(C)c1 [Compound 73]
500 to 2000 | > 5000 | Cc1cc(-n2c(C(F)(F)F)c(C3CC4(CC(C(=O)O)C4)C3)c3cc(O)ccc32)ccc1F (centres unmarked) [Compound 140, 6-(1-(4-fluoro-3-methylphenyl)-5-hydroxy-2-(trifluoromethyl)-1H-indol-3-yl)spiro[3.3]heptane-2-carboxylic acid]
> 2000 | > 30000 | CC(C)(C)OC(=O)N1CCC(c2c(C#N)c3cc(O)ccc3n2-c2ccc(F)cc2)CC1 [Compound 199]
> 2000 | > 30000 | N#Cc1c(C2CCOCC2)n(-c2ccccc2)c2ccc(O)cc12 [Compound 202]
> 2000 | > 30000 | Cc1cc(-n2c(C(C)C)c([C@@H]3C[C@H]3C(=O)O)c3cc(O)ccc32)ccc1F [Compound 135]
> 2000 | > 30000 | Cc1nccc(-n2c(C(C)C)c(-c3ccc(C(=O)O)cc3)c3cc(O)ccc32)n1 [Compound 174]
> 2000 | > 30000 | Cc1cc(-n2c(C(C)C)c([C@H]3C[C@@H](C(=O)O)C3)c3cc(O)ccc32)ccn1 [Compound 144]
> 2000 | > 30000 | Cc1cc(-n2c(C3CCOCC3)c([C@H]3C[C@](C(=O)O)(C(F)F)C3)c3cc(O)ccc32)ccc1F [Compound 123, cis-1-(difluoromethyl)-3-(1-(4-fluoro-3-methylphenyl)-5-hydroxy-2-(tetrahydro-2H-pyran-4-yl)-1H-indol-3-yl)cyclobutane-1-carboxylic acid]
500 to 2000 | > 30000 | Cc1cc(-n2c(C(C)C)c([C@H]3C[C@@H](C(=O)O)C3)c3cc(O)ccc32)ccc1F [Compound 146]
500 to 2000 | > 30000 | CC(C)c1c([C@H]2C[C@@H]2C(=O)O)c2cc(O)c(F)cc2n1-c1ccc(F)cc1 [Compound 125]

EC50 [1] [nM] | IC50 [2] [nM] | Structure (SMILES)
> 2000 | > 30000 | CCCn1c(C(C)C)c(C#N)c2cc(O)ccc21 [Compound 204, 5-hydroxy-2-isopropyl-1-propyl-1H-indole-3-carbonitrile]
> 2000 | > 30000 | Cc1cc(-n2c(C3CCOCC3)c(-c3ccc(C(=O)O)cc3)c3cc(O)ccc32)ccc1F [Compound 166, 4-(1-(4-fluoro-3-methylphenyl)-5-hydroxy-2-(tetrahydro-2H-pyran-4-yl)-1H-indol-3-yl)benzoic acid]
500 to 2000 | > 5000 | Cc1cc(-n2c(C(C)C)c([C@H]3C[C@@H](c4nn[nH]n4)C3)c3cc(O)ccc32)ccc1F [Compound 217, 1-(4-fluoro-3-methyl-phenyl)-2-isopropyl-3-[3-(2H-tetrazol-5-yl)cyclobutyl]indol-5-ol]
< 500 | < 2000 | Cc1cc(-n2c(C(C)C)c(C3CC4(C3)CC(F)(C(=O)O)C4)c3cc(O)ccc32)ccc1F (centres unmarked) [Compound 148, 2-fluoro-6-(1-(4-fluoro-3-methylphenyl)-5-hydroxy-2-isopropyl-1H-indol-3-yl)spiro[3.3]heptane-2-carboxylic acid]
> 2000 | > 5000 | CNS(=O)(=O)N1CC(c2c(C(C)C)n(-c3ccc(F)c(C)c3)c3ccc(O)cc23)C1 [Compound 213, 3-(1-(4-fluoro-3-methylphenyl)-5-hydroxy-2-isopropyl-1H-indol-3-yl)-N-methylazetidine-1-sulfonamide]
500 to 2000 | > 5000 | Cc1cc(-n2c(C(C)C)c([C@H]3C[C@H](C(=O)O)C3)c3cc(O)ccc32)ccc1F [Compound 145]
500 to 2000 | > 5000 | Cc1cc(-n2c(C(C)C)c([C@H]3C[C@@H](C(=O)O)C3)c3c(F)c(O)ccc32)ccc1F [Compound 90]
> 2000 | > 30000 | O=C(O)[C@H]1C[C@@H](Cc2c(C3CCOCC3)n(-c3ccc(F)cc3)c3ccc(O)cc23)C1 [Compound 35]
> 2000 | > 30000 | Cc1cc(-n2c(C(C)C)c(-c3ccccc3C(=O)O)c3cc(O)ccc32)ccc1F [Compound 169]
> 2000 | > 30000 | Cc1cc(-n2c(C(C)C)c(C3COC(C(=O)O)C3)c3cc(O)ccc32)ccc1F (centres unmarked) [Compound 88]
500 to 2000 | > 5000 | Cc1cc(-n2c(C(C)C)c(CC3(C(=O)O)CC3)c3cc(O)ccc32)ccc1F [Compound 104]
500 to 2000 | > 30000 | O=C(O)[C@H]1C[C@H](c2c(C3CCOCC3)n(-c3ccc(F)c(Cl)c3)c3ccc(O)cc32)C1 [Compound 114]
> 2000 | > 30000 | CC(C)c1c([C@H]2C[C@@H](C(=O)O)C2)c2cc(O)ccc2n1-c1ccc(F)c(F)c1 [Compound 142, cis-3-(1-(3,4-difluorophenyl)-5-hydroxy-2-isopropyl-1H-indol-3-yl)cyclobutane-1-carboxylic acid]
500 to 2000 | > 30000 | CC(C)(CCc1c(C2CCOCC2)n(-c2ccc(F)cc2)c2ccc(O)cc12)C(=O)O [Compound 30]
> 2000 | > 30000 | N#Cc1c(C2CNC2)n(-c2ccc(F)cc2)c2ccc(O)cc12 [Compound 196]
500 to 2000 | > 5000 | CC(C)c1c(CC2(C(=O)O)CC2)c2cc(O)ccc2n1-c1ccc(F)cc1 [Compound 71]
< 500 | > 5000 | Cc1cc(-n2c(C(C)C)c([C@H]3C[C@@](C(=O)O)(C(F)(F)F)C3)c3cc(O)ccc32)ccc1F [Compound 60]
